Here are results for three molecules from ChEMBL document CHEMBL5696442, “Discovery of type II inhibitors of TGFβ-activated kinase 1 (TAK1) and mitogen-activated protein kinase kinase kinase kinase 2 (MAP4K2)” (J Med Chem, 2015).

For orientation: inhibition means the relative decrease from the control value, in per cent. The term residual activity denotes the share of the control activity or signal that is left under treatment. Read a low residual activity as a large loss of activity.

Assay [1] has as its target Serine/threonine-protein kinase Nek6 (Homo sapiens) (UniProt Q9HC98). The assay can be described thus: Inhibition of NEK6 Lys2 labeling site harbouring DIKPANVFITATGVVK in human Huh-7 cells at 1 uM by KiNativ Profiling analysis relative to control. Type of assay: cell-based.
Assay [2] concerns the target Cyclin-dependent kinase 10 (Homo sapiens) (UniProt Q15131). Description: Inhibition of CDK10 Lys2 labeling site in human Huh-7 cell lysate at 1 uM by KiNativ Profiling analysis relative to control. Type of assay: subcellular.
Assay [3] addresses T1, Serine/threonine-protein kinase STK11 (Homo sapiens) (UniProt Q15831).
T1 sequence (whole entry): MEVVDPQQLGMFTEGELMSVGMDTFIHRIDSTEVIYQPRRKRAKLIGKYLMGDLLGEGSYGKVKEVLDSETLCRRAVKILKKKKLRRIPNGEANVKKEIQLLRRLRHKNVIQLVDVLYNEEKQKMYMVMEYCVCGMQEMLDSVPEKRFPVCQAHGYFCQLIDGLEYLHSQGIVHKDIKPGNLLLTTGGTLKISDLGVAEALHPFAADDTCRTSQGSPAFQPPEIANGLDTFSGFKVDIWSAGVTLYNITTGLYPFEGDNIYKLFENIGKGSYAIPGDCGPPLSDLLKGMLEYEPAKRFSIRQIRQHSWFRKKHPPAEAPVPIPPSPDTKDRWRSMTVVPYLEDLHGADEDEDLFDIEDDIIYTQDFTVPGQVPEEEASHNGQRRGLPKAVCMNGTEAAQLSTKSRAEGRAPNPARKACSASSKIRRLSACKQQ
The assay can be described thus: Inhibition of LKB1 (unknown origin) at 1 uM by Ambit Kinomescan binding assay relative to control; values are per cent of control.

In assay [4] the target is Aurora kinase B (Homo sapiens) (UniProt Q96GD4). The assay can be described thus: Inhibition of AURKB (unknown origin) at 1 uM by Ambit Kinomescan binding assay relative to control.
In assay [5] the target is Tyrosine-protein kinase Yes (Homo sapiens) (UniProt P07947). Description: Inhibition of YES ACT labeling site in human A-375 cells at 0.05 uM by KiNativ Profiling analysis relative to control. Type of assay: cell-based.
Assay [6] has as its target Serine/threonine-protein kinase 25 (Homo sapiens) (UniProt O00506). The assay can be described thus: Inhibition of YSK1 (unknown origin) at 1 uM by Ambit Kinomescan binding assay relative to control; values are per cent of control.
In assay [7] the target is Tyrosine-protein kinase receptor UFO (Homo sapiens) (UniProt P30530). Description: Inhibition of AXL (unknown origin) at 1 uM by Ambit Kinomescan binding assay relative to control; values are per cent of control.
Assay [8] deals with Casein kinase I isoform gamma-3 (Homo sapiens) (UniProt Q9Y6M4). The assay can be described thus: Inhibition of CSNK1G3 (unknown origin) at 10 uM by Ambit Kinomescan binding assay.
In assay [9] the target is Microtubule-associated serine/threonine-protein kinase 3 (Homo sapiens) (UniProt O60307). Description: Inhibition of MAST3 Lys2 labeling site in human A-375 cells at 0.5 uM by KiNativ Profiling analysis relative to control. Type of assay: cell-based.
In assay [10] the target is Mitogen-activated protein kinase kinase kinase 4 (Homo sapiens) (UniProt Q9Y6R4). Description: Inhibition of MAP3K4 K2 labeling site in human Huh-7 cells at 1 uM by KiNativ Profiling analysis relative to control. Type of assay: cell-based.
For assay [11], the target named is Serine/threonine-protein kinase N2 (Homo sapiens) (UniProt Q16513). Description: Inhibition of PKN2 (unknown origin) at 10 uM by Ambit Kinomescan binding assay.
In assay [12] the target is cGMP-dependent protein kinase 1 (Homo sapiens) (UniProt Q13976). The assay can be described thus: Inhibition of PRKG1 (unknown origin) at 10 uM by Ambit Kinomescan binding assay.
The target in assay [13] is T2, Serine/threonine-protein kinase LATS1 (Homo sapiens) (UniProt O95835).
T2 sequence (whole entry): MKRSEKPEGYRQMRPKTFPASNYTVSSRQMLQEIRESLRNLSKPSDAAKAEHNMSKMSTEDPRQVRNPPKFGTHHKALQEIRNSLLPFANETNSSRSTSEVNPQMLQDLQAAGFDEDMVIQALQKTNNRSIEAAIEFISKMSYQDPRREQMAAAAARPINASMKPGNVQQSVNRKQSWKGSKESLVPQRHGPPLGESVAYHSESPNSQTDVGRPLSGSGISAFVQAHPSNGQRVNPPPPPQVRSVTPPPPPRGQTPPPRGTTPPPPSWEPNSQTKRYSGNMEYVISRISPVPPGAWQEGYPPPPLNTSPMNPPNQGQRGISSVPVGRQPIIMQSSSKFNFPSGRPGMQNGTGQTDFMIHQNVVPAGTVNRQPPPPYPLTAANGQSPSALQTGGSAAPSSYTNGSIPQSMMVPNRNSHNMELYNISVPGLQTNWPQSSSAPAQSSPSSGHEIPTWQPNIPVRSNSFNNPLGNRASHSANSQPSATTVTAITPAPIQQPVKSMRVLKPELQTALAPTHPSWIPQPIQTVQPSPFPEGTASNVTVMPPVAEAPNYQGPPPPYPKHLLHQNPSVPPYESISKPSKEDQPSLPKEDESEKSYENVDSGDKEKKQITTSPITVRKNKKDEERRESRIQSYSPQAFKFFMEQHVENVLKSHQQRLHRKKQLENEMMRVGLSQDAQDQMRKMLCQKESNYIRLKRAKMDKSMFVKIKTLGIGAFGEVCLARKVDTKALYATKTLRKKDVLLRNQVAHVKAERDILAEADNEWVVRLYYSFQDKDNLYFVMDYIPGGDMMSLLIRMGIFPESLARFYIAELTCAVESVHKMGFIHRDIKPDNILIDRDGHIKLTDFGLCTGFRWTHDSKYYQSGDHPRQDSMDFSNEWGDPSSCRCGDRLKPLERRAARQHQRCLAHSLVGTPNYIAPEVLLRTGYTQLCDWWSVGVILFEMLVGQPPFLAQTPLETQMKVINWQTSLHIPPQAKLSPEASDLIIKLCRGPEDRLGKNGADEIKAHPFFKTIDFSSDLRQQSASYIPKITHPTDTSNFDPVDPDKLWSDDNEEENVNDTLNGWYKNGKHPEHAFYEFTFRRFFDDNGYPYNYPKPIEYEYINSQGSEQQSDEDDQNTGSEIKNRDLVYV
The assay can be described thus: Inhibition of LATS1 Lys2 labeling site in human A-375 cells at 5 uM by KiNativ Profiling analysis relative to control. Type of assay: cell-based.

Assay [14] concerns the target Cyclin-dependent kinase 20 (Homo sapiens) (UniProt Q8IZL9). Description: Inhibition of CCRK Lys2 labeling site in human A-375 cells at 0.5 uM by KiNativ Profiling analysis relative to control. Type of assay: cell-based.
In assay [15] the target is Cyclin-dependent kinase 14 (Homo sapiens) (UniProt O94921). Description: Inhibition of PFTAIRE1 Lys2 labeling site in human A-375 cells at 0.05 uM by KiNativ Profiling analysis relative to control.
The target in assay [16] is Mitogen-activated protein kinase 7 (Homo sapiens) (UniProt Q13164). Description: Inhibition of ERK5 (unknown origin) at 10 uM by Ambit Kinomescan binding assay.

Each structure is given as a SMILES string. The source made the active and inactive calls. No cut-off for these calls is given here.

Sequence of Cyclin-dependent kinase 20 (Homo sapiens) (Q8IZL9 whole entry): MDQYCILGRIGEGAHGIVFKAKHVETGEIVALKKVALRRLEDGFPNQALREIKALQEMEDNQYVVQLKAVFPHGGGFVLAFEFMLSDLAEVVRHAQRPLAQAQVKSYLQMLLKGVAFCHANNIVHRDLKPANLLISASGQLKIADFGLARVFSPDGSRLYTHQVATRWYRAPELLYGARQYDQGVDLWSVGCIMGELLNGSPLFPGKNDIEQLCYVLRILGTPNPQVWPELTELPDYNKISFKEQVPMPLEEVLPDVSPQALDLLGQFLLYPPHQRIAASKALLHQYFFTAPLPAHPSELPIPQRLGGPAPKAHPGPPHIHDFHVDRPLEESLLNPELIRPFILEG
Sequence of Mitogen-activated protein kinase kinase kinase 4 (Homo sapiens) (Q9Y6R4 whole entry): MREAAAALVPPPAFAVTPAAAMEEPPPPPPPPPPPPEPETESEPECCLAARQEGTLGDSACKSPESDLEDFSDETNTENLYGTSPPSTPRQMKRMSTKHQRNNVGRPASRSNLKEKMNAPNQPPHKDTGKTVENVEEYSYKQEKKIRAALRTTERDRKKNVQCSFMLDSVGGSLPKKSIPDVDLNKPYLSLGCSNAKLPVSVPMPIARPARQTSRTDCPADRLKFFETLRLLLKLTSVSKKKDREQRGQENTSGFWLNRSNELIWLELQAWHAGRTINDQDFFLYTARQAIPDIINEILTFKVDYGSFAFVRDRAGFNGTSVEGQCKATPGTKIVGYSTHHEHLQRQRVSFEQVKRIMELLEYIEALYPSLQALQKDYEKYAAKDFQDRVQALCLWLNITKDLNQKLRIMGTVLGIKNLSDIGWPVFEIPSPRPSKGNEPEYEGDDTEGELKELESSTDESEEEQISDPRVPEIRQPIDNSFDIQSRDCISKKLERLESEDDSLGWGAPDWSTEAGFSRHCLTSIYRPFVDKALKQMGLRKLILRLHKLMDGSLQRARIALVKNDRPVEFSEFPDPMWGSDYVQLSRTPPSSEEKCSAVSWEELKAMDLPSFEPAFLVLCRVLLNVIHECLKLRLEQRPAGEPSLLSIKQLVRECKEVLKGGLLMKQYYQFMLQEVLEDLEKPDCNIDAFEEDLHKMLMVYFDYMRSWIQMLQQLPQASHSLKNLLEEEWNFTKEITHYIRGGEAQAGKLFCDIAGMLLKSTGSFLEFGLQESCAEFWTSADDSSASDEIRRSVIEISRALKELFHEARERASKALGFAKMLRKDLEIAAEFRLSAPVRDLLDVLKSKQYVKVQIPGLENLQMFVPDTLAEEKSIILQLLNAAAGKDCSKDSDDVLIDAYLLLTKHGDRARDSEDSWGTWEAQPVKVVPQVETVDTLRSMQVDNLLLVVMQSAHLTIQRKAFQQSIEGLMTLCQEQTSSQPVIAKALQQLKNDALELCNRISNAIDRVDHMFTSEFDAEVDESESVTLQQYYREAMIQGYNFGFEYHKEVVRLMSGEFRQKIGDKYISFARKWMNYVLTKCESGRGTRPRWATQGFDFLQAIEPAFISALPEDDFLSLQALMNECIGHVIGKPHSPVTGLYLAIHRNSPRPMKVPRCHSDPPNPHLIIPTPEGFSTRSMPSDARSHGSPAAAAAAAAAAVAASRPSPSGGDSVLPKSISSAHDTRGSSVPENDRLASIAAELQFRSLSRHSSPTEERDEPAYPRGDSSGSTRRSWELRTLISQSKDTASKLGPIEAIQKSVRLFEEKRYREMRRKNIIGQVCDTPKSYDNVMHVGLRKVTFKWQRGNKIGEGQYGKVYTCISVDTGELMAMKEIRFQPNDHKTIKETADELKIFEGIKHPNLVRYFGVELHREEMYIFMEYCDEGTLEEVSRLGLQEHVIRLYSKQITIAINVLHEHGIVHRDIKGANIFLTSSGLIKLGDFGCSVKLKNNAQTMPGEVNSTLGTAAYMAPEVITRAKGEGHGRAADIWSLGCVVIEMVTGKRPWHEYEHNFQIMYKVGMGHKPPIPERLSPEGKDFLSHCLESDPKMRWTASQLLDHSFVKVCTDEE
Sequence of Aurora kinase B (Homo sapiens) (Q96GD4 whole entry): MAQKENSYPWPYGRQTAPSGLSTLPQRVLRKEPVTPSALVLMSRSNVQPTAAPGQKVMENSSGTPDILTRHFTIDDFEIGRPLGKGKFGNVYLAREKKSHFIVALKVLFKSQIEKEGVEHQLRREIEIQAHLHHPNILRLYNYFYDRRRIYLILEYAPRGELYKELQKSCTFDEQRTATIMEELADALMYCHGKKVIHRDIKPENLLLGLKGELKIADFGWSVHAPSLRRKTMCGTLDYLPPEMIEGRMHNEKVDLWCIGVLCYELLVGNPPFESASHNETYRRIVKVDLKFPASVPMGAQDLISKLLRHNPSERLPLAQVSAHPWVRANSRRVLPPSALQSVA
Sequence of Casein kinase I isoform gamma-3 (Homo sapiens) (Q9Y6M4 whole entry, looked up, canonical isoform): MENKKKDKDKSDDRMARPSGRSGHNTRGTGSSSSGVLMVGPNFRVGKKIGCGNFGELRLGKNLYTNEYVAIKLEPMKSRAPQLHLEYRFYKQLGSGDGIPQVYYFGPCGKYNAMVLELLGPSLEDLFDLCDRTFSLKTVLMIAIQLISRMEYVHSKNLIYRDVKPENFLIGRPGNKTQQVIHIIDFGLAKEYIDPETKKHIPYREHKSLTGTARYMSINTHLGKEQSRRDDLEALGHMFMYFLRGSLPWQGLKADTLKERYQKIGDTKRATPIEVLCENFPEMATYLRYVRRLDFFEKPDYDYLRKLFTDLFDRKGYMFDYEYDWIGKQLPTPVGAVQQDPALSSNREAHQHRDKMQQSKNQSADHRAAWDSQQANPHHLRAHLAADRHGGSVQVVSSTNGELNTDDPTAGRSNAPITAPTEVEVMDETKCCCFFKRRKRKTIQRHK
Sequence of Cyclin-dependent kinase 14 (Homo sapiens) (O94921 whole entry, looked up): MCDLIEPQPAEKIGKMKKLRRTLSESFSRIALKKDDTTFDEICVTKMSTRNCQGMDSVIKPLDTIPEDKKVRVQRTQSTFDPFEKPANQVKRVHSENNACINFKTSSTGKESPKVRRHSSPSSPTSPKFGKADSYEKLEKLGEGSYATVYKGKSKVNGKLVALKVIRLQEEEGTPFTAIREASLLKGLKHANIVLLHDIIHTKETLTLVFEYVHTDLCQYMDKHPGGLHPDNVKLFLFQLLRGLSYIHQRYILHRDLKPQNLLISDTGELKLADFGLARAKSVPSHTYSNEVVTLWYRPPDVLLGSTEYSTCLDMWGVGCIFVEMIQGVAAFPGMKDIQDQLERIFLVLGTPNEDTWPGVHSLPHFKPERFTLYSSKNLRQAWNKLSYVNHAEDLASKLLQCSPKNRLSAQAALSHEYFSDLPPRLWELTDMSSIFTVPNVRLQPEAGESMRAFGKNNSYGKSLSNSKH
Sequence of Serine/threonine-protein kinase 25 (Homo sapiens) (O00506 whole entry, looked up): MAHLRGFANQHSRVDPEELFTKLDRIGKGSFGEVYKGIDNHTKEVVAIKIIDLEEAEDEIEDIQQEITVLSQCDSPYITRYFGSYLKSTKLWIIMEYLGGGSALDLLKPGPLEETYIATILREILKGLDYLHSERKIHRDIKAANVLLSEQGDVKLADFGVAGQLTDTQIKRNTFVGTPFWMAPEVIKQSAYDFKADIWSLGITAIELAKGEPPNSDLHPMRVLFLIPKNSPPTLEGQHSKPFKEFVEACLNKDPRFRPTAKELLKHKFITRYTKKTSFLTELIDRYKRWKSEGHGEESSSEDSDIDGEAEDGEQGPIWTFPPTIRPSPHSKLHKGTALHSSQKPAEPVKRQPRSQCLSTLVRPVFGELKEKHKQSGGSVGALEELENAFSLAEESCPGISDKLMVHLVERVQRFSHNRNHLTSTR
Sequence of Tyrosine-protein kinase receptor UFO (Homo sapiens) (P30530 whole entry, canonical isoform): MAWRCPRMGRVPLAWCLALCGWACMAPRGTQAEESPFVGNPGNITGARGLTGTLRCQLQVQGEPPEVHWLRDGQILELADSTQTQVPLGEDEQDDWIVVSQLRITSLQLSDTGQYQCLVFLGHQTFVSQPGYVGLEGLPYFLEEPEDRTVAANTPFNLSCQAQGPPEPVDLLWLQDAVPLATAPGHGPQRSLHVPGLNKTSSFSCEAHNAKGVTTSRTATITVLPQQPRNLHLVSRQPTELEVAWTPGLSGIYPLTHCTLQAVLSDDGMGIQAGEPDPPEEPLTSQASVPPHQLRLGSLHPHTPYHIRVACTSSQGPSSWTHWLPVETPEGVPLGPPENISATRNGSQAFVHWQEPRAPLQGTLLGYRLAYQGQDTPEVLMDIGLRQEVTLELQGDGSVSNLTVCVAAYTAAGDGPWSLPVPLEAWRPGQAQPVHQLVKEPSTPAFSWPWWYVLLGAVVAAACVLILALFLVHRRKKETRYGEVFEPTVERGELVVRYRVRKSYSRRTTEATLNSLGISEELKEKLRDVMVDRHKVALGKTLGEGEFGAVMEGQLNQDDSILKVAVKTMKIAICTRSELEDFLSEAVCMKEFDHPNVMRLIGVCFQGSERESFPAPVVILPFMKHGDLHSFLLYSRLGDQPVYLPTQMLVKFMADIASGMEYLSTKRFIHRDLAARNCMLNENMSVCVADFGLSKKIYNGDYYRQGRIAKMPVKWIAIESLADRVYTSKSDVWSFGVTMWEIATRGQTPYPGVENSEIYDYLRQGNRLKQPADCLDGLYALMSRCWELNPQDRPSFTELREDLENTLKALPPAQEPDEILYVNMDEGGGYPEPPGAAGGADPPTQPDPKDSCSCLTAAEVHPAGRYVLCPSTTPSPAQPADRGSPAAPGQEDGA
Sequence of Cyclin-dependent kinase 10 (Homo sapiens) (Q15131 whole entry): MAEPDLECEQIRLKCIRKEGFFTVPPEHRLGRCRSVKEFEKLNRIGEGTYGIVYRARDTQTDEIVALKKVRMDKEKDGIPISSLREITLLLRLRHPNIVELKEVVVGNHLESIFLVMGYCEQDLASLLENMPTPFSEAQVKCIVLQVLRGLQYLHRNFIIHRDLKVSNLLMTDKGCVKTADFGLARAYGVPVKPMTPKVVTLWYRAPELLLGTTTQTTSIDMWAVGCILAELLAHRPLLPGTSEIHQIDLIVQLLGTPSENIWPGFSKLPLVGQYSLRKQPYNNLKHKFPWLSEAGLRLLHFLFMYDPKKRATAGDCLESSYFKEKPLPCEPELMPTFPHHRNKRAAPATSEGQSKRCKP

`CNc1cc(Oc2cc(C(=O)Nc3cc(N4CCN(C)CC4)cc(C(F)(F)F)c3)ccc2C)ncn1`: the inhibition was -2.7% in [1] and 2.7% in assay [2].
As for `CCN1CCN(Cc2ccc(NC(=O)c3ccc(C)c(/C=C/c4cnc5[nH]ccc5c4OC)c3)cc2C(F)(F)F)CC1`, the residual activity in assay [3] turned out to be 58%; in assay [7], 55%. The inhibition in [4] came to 65%; in [5], 38.9%. Besides, the percent of control in assay [6] came to 100%.
As to `CCN1CCN(Cc2ccc(NC(=O)c3ccc(C)c(Oc4ccnc5[nH]ccc45)c3)cc2C(F)(F)F)CC1`, the inhibition entry in assay [8], in assay [11], in assay [12] and in [16] was “inactive” in each case. Moreover, the inhibition in assay [9] is 2.5%; in assay [10] it was -2.3%; in [13], -6.4%; in assay [14] it was -2.3%; in assay [15] it was 0.6%.
